According to patent publication US4894453A, “2-substituted alkoxy-3-substituted-pyrazines” (Toyo Jozo Kabushiki Kaisha, priority 1986, dated 1990):

test system: lipoperoxide generation in rat cerebrum; assay: Antioxidant activity (inhibition of lipoperoxide generation, method of Stocks et al.); type: biochemical; conditions: 100 μM; rat cerebrum supernatant, 37° C., 15 min, thiobarbituric acid, 532 nm; hydrochloride salt
Protocol: (§1) The pharmacological activity of the present compounds [1] is illustrated below. All the compounds [1] used in the pharmacological tests were tested in the form of the hydrochloride salt thereof.
Antioxidant activity is determined according to the method of Stocks et al. [Clin. Sci. Mol. Med., 47: 215 (1974)]. Rat cerebrum is added to ice-cooled 40 mM phosphate saline buffer solution (PBS) (pH 7.4, 4 ml buffer per 1 g cerebrum), homogenized and centrifuged (1000×g, 4° C., 10 min.) to obtain a supernatant solution. The supernatant solution is diluted fivefold with the above ice-cooled PBS solution, and to a 0.9 ml aliquot thereof is added a sample containing a compound [1] (0.1 ml, final concentration 100 μM) dissolved in ethanol. The resultant mixture is incubated at 37° C. for 15 minutes, 35% perchloric acid (0.2 ml) is added, and the mixture is ice-cooled to stop the reaction and centrifuged (1300×g, 4° C., 10 min.). 0.5 ml thiobarbituric acid (5 g/lit. of 50% acetic acid) is added to the supernatant solution (1 ml), so as to measure its absorbancy at 532 nm. The amount of lipoperoxide thus generated is expressed as an amount of malondialdehyde.

Compound | inhibition ratio, lipoperoxide generation (antioxidant activity)
CCc1nc(C)c(C)nc1OCCN1CCCN(Cc2ccc([N+](=O)[O-])cc2)CC1 [Compound 502] | 69%
CCc1nc(C)c(C)nc1OC(C(=O)NCCN1CCN(Cc2ccc([N+](=O)[O-])cc2)CC1)c1ccccc1 (stereo not drawn) [Compound 344] | 48%
CCCCCCCCCCc1nc2c(nc1OCCN1CCN(C(c3ccccc3)c3ccccc3)CC1)CCCC2 [Compound 591] | 59%
CCCCCCCCCCCCc1nc2c(nc1OCCN1CCN(Cc3ccc(OC)cc3)CC1)CCCC2 [Compound 597] | 76%
CCCCCCCCCCc1nc2c(nc1OCCN1CCOCC1)CCCC2 [Compound 585] | 62%
CCc1nc(C)c(C)nc1OC(C(=O)NCCN1CCCN(Cc2ccc(Cl)cc2)CC1)c1ccccc1 (stereo not drawn) [Compound 348] | 62%
CCCCCCCCCCCCc1nc2c(nc1OCCN1CCN(c3ccccc3OC)CC1)CCCC2 [Compound 599] | 70%
O=C(COc1nc2c(nc1Cc1ccccc1)CCCC2)NCCN1CCCN(Cc2ccc(F)cc2)CC1 [Compound 372] | 64%
CCCCCCCCCCCCc1nc2c(nc1OCCN1CCN(Cc3ccccc3)CC1)CCCC2 [Compound 596] | 73%
CCCCCCCCc1nc2c(nc1OCCN1CCN(c3ccccc3OC)CC1)CCCC2 [Compound 578] | 88%
CCCCCCCCCCCCc1nc2c(nc1OCCN1CCN(CCCC)CC1)CCCC2 [Compound 595] | 70%
CCc1nc(Cc2ccccc2)c(OCC(=O)NCCN2CCCN(Cc3ccc(Cl)cc3)CC2)nc1CC [Compound 382] | 83%
CCCCCCCCCCCCCCCCc1nc2c(nc1OCCN1CCN(Cc3ccccc3)CC1)CCCC2 [Compound 608] | 55%
CCCCCCCCc1nc2c(nc1OCCN1CCN(Cc3ccccc3)CC1)CCCC2 [Compound 574] | 71%
CCCCCCCCCCCCCCc1nc2c(nc1OCCN1CCN(Cc3ccc(F)cc3)CC1)CCCC2 [Compound 602] | 64%
CCCCCCCCCCCCc1nc2c(nc1OCCN1CCCN(Cc3ccc(F)cc3)CC1)CCCC2 [Compound 598] | 88%
CCCCCCCCCc1nc2c(nc1OCCN1CCCN(Cc3ccc(Cl)cc3)CC1)CCCC2 [Compound 583] | 82%
CCc1nc(Cc2ccccc2)c(OCC(=O)NCCN2CCN(Cc3ccc(Cl)cc3)CC2)nc1CC [Compound 379] | 50%
CCCCc1nc2c(nc1OCCN1CCCN(Cc3ccc(Cl)cc3)CC1)CCCC2 [Compound 520] | 83%
CCCCCCCCc1nc2c(nc1OCCN1CCCN(Cc3ccc(F)cc3)CC1)CCCC2 [Compound 576] | 85%
CCCCCc1nc2c(nc1OCCN1CCCN(Cc3ccc(F)cc3)CC1)CCCC2 [Compound 562] | 65%

Compound | inhibition ratio, lipoperoxide generation (antioxidant activity)
CCCCCCc1nc2c(nc1OCCN1CCN(Cc3ccc(Cl)cc3)CC1)CCCC2 [Compound 568] | 61%
CCCCCCCCCCCCCCc1nc2c(nc1OCCN1CCCN(Cc3ccc(Cl)cc3)CC1)CCCC2 [Compound 603] | 76%
CCCCCCCCCCc1nc2c(nc1OCCN1CCCCC1)CCCC2 [Compound 586] | 68%
CCc1nc(C)c(C)nc1OC(C(=O)NCCN1CCN(Cc2ccc(Cl)cc2Cl)CC1)c1ccccc1 (stereo not drawn) [Compound 345] | 54%
CCCCCCCCc1nc2c(nc1OCCN1CCN(Cc3ccc(Cl)cc3)CC1)CCCC2 [Compound 575] | 79%
CCCCCCCCCCCCc1nc2c(nc1OCCN1CCOCC1)CCCC2 [Compound 594] | 58%
CCCCCCCCCCc1nc2c(nc1OCCN1CCN(c3ccc(OC)cc3)CC1)CCCC2 [Compound 593] | 73%
CCCCCCCCCCc1nc2c(nc1OCCN1CCCN(Cc3ccc(F)cc3)CC1)CCCC2 [Compound 592] | 85%
CCCCCCCCc1nc2c(nc1OCCN1CCN(c3ccccc3)CC1)CCCC2 [Compound 577] | 71%
CCCCCCCCCCCCCCc1nc2c(nc1OCCN1CCN(Cc3ccccc3)CC1)CCCC2 [Compound 601] | 67%
CCCCCCCCCCc1nc2c(nc1OCCN1CCN(Cc3ccc(Cl)cc3)CC1)CCCC2 [Compound 590] | 74%
CCCCCCc1nc2c(nc1OCCN1CCCN(Cc3ccc(F)cc3)CC1)CCCC2 [Compound 569] | 81%
CCCCCCCCCCCCCCc1nc2c(nc1OCCN1CCN(CCCC)CC1)CCCC2 [Compound 600] | 61%
CCCCCCCCCCc1nc2c(nc1OCCN1CCN(Cc3ccccc3)CC1)CCCC2 [Compound 589] | 74%
Cc1nc(Cc2ccccc2)c(OCCN2CCCN(Cc3ccc(Cl)cc3)CC2)nc1C [Compound 516] | 75%
O=C(COc1nc2c(nc1Cc1ccccc1)CCCC2)NCCN1CCN(c2ccc(Cl)cc2)CC1 [Compound 371] | 49%
CCCCCCCCCCCCCCCCc1nc2c(nc1OCCN1CCN(CCCC)CC1)CCCC2 [Compound 607] | 52%
CCCCCCCCCc1nc2c(nc1OCCN1CCN(Cc3ccccc3)CC1)CCCC2 [Compound 581] | 71%
CCCCCCc1nc2c(nc1OCCN1CCN(c3ccccc3OC)CC1)CCCC2 [Compound 570] | 65%
O=C(COc1nc2c(nc1Cc1ccccc1)CCCC2)NCCN1CCN(c2ccccc2)CC1 [Compound 373] | 49%
CCc1nc(C)c(C)nc1OC(C(=O)NCCN1CCCN(Cc2ccc(F)cc2)CC1)c1ccccc1 (stereo not drawn) [Compound 347] | 51%

test system: collagen-induced aggregation (rabbit platelet plasma); assay: Platelet aggregation inhibitory action on collagen-induced aggregation; type: cell-based; conditions: Oryctolagus cuniculus, 0.05 h, collagen 2.5 μg/ml, 37° C., 3 min incubation, hydrochloride salt, read-out: inhibition ratio, collagen-induced platelet aggregation
Protocol: as §1
(§2) 1. Platelet aggregation inhibition:
(§3) Sample solution containing a compound [1] (final concentration 500 or 100 μM) is added to rabbit platelet plasma to which was added 10% by volume of a 3.8% sodium citrate solution, and the mixture is incubated at 37° C. for 3 minutes. A platelet activation factor (PAF, final concentration 10-50 μg/ml) or collagen (final concentration 2.5 μg/ml) is added thereto as an aggregating agent, and platelet aggregation activity is measured with an aggregometer. The results of assays for PAF-induced aggregation are shown in Table 3, and those for collagen-induced aggregation are shown in Table 4, which tables show the strong platelet aggregation inhibitory activity of the compounds [1] of the present invention.

Compound | inhibition at 100 µM
CCCCCCCCCCc1nc2c(nc1OCCN1CCOCC1)CCCC2 [Compound 585] | 41%
Cc1nc(OCCN2CCCN(Cc3ccc(Cl)cc3)CC2)c(C(C)C)nc1C [Compound 547] | 56%

test system: PAF-induced aggregation (rabbit platelet plasma); assay: Platelet aggregation inhibitory action on PAF-induced aggregation; type: cell-based; conditions: Oryctolagus cuniculus, 0.05 h, 100 μM, PAF 10-50 μg/ml, 37° C., 3 min incubation, hydrochloride salt, read-out: inhibition ratio, PAF-induced platelet aggregation
Protocol: as §1, §2, §3

Compound | inhibition at 100 µM
CCCCCCCc1nc2c(nc1OCCN1CCN(CCCC)CC1)CCCC2 [Compound 571] | 88%
CCc1nc(C)c(C)nc1OCCN1CCCN(Cc2ccc([N+](=O)[O-])cc2)CC1 [Compound 502] | 81%
CCc1nc(C)c(C)nc1OC(C(=O)NCCN1CCN(Cc2ccc([N+](=O)[O-])cc2)CC1)c1ccccc1 (stereo not drawn) [Compound 344] | 44%
CCc1nc(C)c(C)nc1OC(C(=O)NCCN1CCCN(Cc2ccc(Cl)cc2)CC1)c1ccccc1 (stereo not drawn) [Compound 348] | 70%
CCc1nc(OCCN2CCCN(Cc3ccc(OC)cc3)CC2)c(C(C)C)nc1CC [Compound 553] | 82%
CCCCN1CCN(CCOc2nc(CC)c(CC)nc2C(C)C)CC1 [Compound 551] | 97%
CCCCCCCCCCCCc1nc2c(nc1OCCN1CCN(CCCC)CC1)CCCC2 [Compound 595] | 85%
CCc1nc(C)c(C)nc1OC(C(=O)NCCN1CCOCC1)c1ccccc1 (stereo not drawn) [Compound 341] | 42%
CCCCCCc1nc2c(nc1OCCN1CCN(CCCC)CC1)CCCC2 [Compound 565] | 94%
CCc1nc(C)c(C)nc1OC(C(=O)NCCN1CCN(Cc2ccccc2)CC1)c1ccccc1 (stereo not drawn) [Compound 342] | 43%
CCCCCc1nc2c(nc1OCCN1CCN(CCCC)CC1)CCCC2 [Compound 560] | 97%
CCCCCc1nc2c(nc1OCCN1CCCN(Cc3ccc(F)cc3)CC1)CCCC2 [Compound 562] | 45%
CCc1nc(C)c(C)nc1OCCN1CCCN(Cc2ccc(Cl)cc2)CC1 [Compound 504] | 60%
Cc1nc(C)c(OCCN2CCCN(Cc3ccc(Cl)cc3)CC2)nc1C [Compound 541] | 44%
CCc1nc(OCCN2CCN(Cc3ccccc3)CC2)c(C(C)C)nc1CC [Compound 552] | 78%
CCCCCCc1nc2c(nc1OCCN1CCN(Cc3ccccc3)CC1)CCCC2 [Compound 567] | 58%
CCCCCc1nc2c(nc1OCCN1CCN(Cc3ccccc3)CC1)CCCC2 [Compound 561] | 56%
CCCCCCCCCCCCCCc1nc2c(nc1OCCN1CCN(CCCC)CC1)CCCC2 [Compound 600] | 52%
CCCCCCc1nc2c(nc1OCCN1CCN(c3ccccc3OC)CC1)CCCC2 [Compound 570] | 40%
CCc1nc(C)c(C)nc1OCCN1CCCN(Cc2ccc(F)cc2)CC1 [Compound 503] | 42%
CCc1nc(C)c(C)nc1OC(C(=O)NCCN1CCCN(Cc2ccc(F)cc2)CC1)c1ccccc1 (stereo not drawn) [Compound 347] | 59%

same assay, conditions: Oryctolagus cuniculus, 0.05 h, 500 μM, PAF 10-50 μg/ml, 37° C., 3 min incubation, hydrochloride salt, read-out: inhibition ratio, PAF-induced platelet aggregation

Compound | inhibition at 500 µM
Cc1nc(C)c(OCC(=O)N2CCN(C(=O)COc3nc(C)c(C)nc3C)CC2)nc1C [Compound 070] | 48%
